Measurements from patent US5795892A, “4-aminopyridazines, method of preparing them and drugs containing these compounds” (Boehringer Manneim GmbH, priority 1994, dated 1998).

Key:
thrombin = biological target: T1, thrombin (Equus caballus, UniProt F7BFJ1); experiment: Thrombin time; assay type: biochemical, horse thrombin, human plasma; settings: 37° C.; for TT5 (thrombin time as a difference to the control): 5 μM active substance in human plasma; for TT50 (thrombin time as a difference to the control): 50 μM active substance in human plasma
T1 construct: mature thrombin (light and heavy chain) cut from prothrombin; clotting of human fibrinogen
Method: A conventional test in clinical coagulation diagnostics is the thrombin time. This parameter measures the action of thrombin on fibrinogen and the formation of clots. Inhibitors of thrombin result in an extended thrombin time.
In order to obtain plasma 9 parts of fresh blood from healthy donors was mixed with one part of sodium citrate solution (0.11 mol/l) and it was centrifuged for 10 minutes at room temperature at ca. 3000 r.p.m. The plasma was removed by pipette and can be stored at room temperature for ca. 8 hours.
200 μl citrate plasma was incubated for 2 minutes at 37° C. in a ball coagulometer (KC10 from the Amelung Company). 10 μl dimethylsulfoxide (DMSO) or a solution of the active substance in DMSO was added to 190 μl pre-heated thrombin reagent (Boehringer Mannheim GmbH; contains ca. 3 U/ml horse thrombin and 0.0125M Ca^++). On addition of this 200 μl solution to the plasma a stopwatch was started and the time at which coagulation starts was determined.
The measured thrombin times in seconds are given in the following table as a difference to the control. The concentrations of the active substances in human plasma were 50 μM (TT50) and 5 μM (TT5).

human α thrombin = biological target: T2, human α thrombin (Homo sapiens, UniProt P00734); experiment: Thrombin inhibition; assay type: biochemical; settings: pH=7.5, 25° C., substrate H-(D)-Phe-Pro-Arg-pNA
T2 construct: human α thrombin; purchased Sigma
Method: The kinetic measurements were carried out in 0.1M phosphate buffer that contained 0.2M sodium chloride and 0.5% polyethylene glycol 6000 at a pH=7.5 and 25° C. with the substrate H-(D)-Phe-Pro-Arg-pNA (Kabi) and human α thrombin (Sigma, specific activity=2150 NIH-units/mg) in polystyrene semi-microcuvettes in a total volume of 1 ml.
In a preliminary test each active substance was determined as to whether it inhibits thrombin rapidly or slowly. For this the reaction was firstly started by adding 0.03 NIH units thrombin to a 100 μM solution of the substrate and the active substance. In a second experiment, substrate was added to a solution of thrombin and the active substance which had been incubated for 5 minutes. The increase in the concentration of p-nitroaniline with time was monitored spectroscopically (UV-VIS spectrophotometer Lambda-2 from the Perkin-Elmer Company) at 405 nm for 12 min.
Since the measured curves obtained in both experiments were linear and parallel, the active substances of the following table are rapid thrombin inhibitors.
The inhibition constants Ki were then determined as follows. The substrate was used at concentrations of 100 μM, 50 μM, 30 μM, 20 μM and at each substrate concentration one measurement was carried out without inhibitor and three measurements were carried out in the presence of various concentrations of the inhibitors listed in the following table. The reactions were started by the addition of thrombin. The increase in absorbance at 405 nm due to the formation of p-nitroaniline was monitored over a time period of 12 minutes. Measurement points (time versus absorbance) were transferred to a PC at intervals of 20 seconds. The rates Vo (change in absorbance per second; measurements without inhibitor) and Vi (measurements with inhibitor) are determined by linear regression. Only that part of each measurement was used in which the substrate concentration had decreased by less than 15%. Km ' and Vmax were determined from a measurement series (constant inhibitor concentration, variable substrate concentrations) by a non-linear fit to the equation [formula] Finally Ki was calculated from the entire series of measurements by non-linear fitting to the equation [formula]
The inhibition constants Ki of the active substances are stated in the following table in units of μM.

Compound | TT5 (thrombin time as a difference to the control) (thrombin) [s] | TT50 (thrombin time as a difference to the control) (thrombin) [s] | Ki (human α thrombin) [nM]
Cc1cc(NS(=O)(=O)c2ccccc2)cc(OCCNc2ccnnc2)c1 [Example 1, N-{3-methyl-5-[2-(pyridazin-4-ylamino)-ethoxy]-phenyl}-benzenesulfonamide] | 23 | 126 | 70
Cc1cc(OCCNc2ccnnc2)cc(OS(=O)(=O)c2cccnc2)c1 [Example 4] | 38 | 194 | 60
Cc1cc(OCCNc2ccnnc2)cc(OS(=O)(=O)c2cccc(C#N)c2)c1 [Example 9, 3-Cyanobenzenesulfonic acid-3-methyl-5-[2-(pyridazin-4-ylamino)-ethoxy]-phenyl ester] | 31 | 128 | 140
Cc1cc(OCCNc2ccnnc2)cc(OS(=O)(=O)c2cccc(C(N)=S)c2)c1 [Example 10, 3-Thiocarbamoyl-benzenesulfonic acid-3-methyl-5-[2-(pyridazin-4-ylamino)-ethoxy]-phenyl ester] | 13 | 71 | 170
Cc1cc(OCCNc2ccnnc2)cc(OS(=O)(=O)c2ccc(C#N)cc2)c1 [Example 11, 4-Cyanobenzenesulfonic acid-3-methyl-5-[2-(pyridazin-4-ylamino)-ethoxy]-phenyl ester] | 18 | 81 | 200
CCOC(=O)COc1cccc(S(=O)(=O)Oc2cc(C)cc(OCCNc3ccnnc3)c2)c1 [Example 13, (3-{3-Methyl-5-[2-(pyridazin-4-ylamino)-ethoxy]-phenoxy-sulfonyl}-phenoxy)-acetic acid ethyl ester] | 0 | 49 | 90
Cc1cc(NS(=O)(=O)C2CCCCC2)cc(OCCNc2ccnnc2)c1 [Example 22, N-{3-Methyl-5-[2-(pyridazin-4-ylamino)-ethoxy]-phenyl}-cyclohexanesulfonamide] | 11 | 90 | 350
